Values of other authors as cited in paper PMC11647681, “Discovery of Non-Covalent Inhibitors for SARS-CoV-2 PLpro: Integrating Virtual Screening, Synthesis, and Experimental Validation” (ACS Medicinal Chemistry Letters, 2024).

Test system: SARS-CoV-2, and its variants
Set-up: method as in PMID 38547259
Details: cited from earlier work

Question: For `CCn1ccc(-c2cc(-c3cnn(C)c3)cc([C@@H](C)NC(=O)c3cc(OCCN(C)C)ccc3C)c2)n1` [Jun12682], which “activity against SARS-CoV-2, and its variants, in vivo” value is on record?
Answer: Its value is “confirmed”.
